# Patent publication US10385065B2, “Antibacterial compounds” (priority 2014, dated 2019)
# Like-named read-outs stand apart in the source and are kept apart here.
# Key:
# Assay type in all cases: cell-based
# [1] = test system: human hepatic cell line (HepG2 ATCC HB-8065); experiment: Human cell viability assay (CellTiter-Glo), HepG2; conditions: read-out: IC50 values against HepG2
# Procedure, shortened: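 HepG2 seeded at 20,000 cells/well, then after 24 h given two-fold serial dilutions (1-128 μg/mL, 1% DMSO) in DMEM with 0.001% FBS and 0.3% albumin. After 24 h at 37 °C, ATP luminescence (CellTiter-Glo) read; IC50 is the concentration halving viability.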
# [2] = test system: S. epidermidis NRS101 MRSE; experiment: MIC, S. epidermidis NRS101; conditions: Staphylococcus epidermidis; Table 2; read-out: MIC S. epidermidis NRS101 MRSE AMG, ERY resistant
# [3] = test system: S. aureus SACPX1-SP25 MSSA - FQ resistant; experiment: microbe, parasite or virus in culture; conditions: Staphylococcus aureus, ATCC 29213 / MSSA, read-out: MIC S. aureus SACPX1-SP25 MSSA - FQ resistant (isogenic mutant of ATCC 29213)
# [4] = test system: S. aureus VRS1 MRSA VAN resistant; experiment: MIC, S. aureus VRS1; conditions: Staphylococcus aureus, Table 2
# [5] = test system: Enterococcus faecium ATCC 19434; experiment: MIC, E. faecium ATCC 19434; conditions: ATCC19434, Table 2
# [6] = test system: S. aureus (MRSA) ATCC 43300; experiment: MIC, S. aureus ATCC 43300; conditions: Staphylococcus aureus; Table 2; read-out: MIC S. aureus (MRSA) ATCC 43300 Heterogeneous MRSA strain
# [7] = test system: S. aureus NRS1 MRSA; experiment: MIC, S. aureus NRS1; conditions: Staphylococcus aureus; Table 2; read-out: MIC S. aureus NRS1 MRSA AMG & TET resistant
# [8] = test system: Haemophilus influenzae ATCC 49247; experiment: MIC, H. influenzae ATCC 49247; conditions: ATCC49247, Table 4
# [9] = test system: S. aureus NRS127 MRSA LZD resistant; experiment: MIC, S. aureus NRS127; conditions: Staphylococcus aureus; Table 2
# [10] = test system: Staphylococcus aureus ATCC 29213; experiment: MIC, broth microdilution, S. aureus ATCC 29213
# [11] = test system: S. aureus NRS100 MRSA; experiment: MIC, S. aureus NRS100; conditions: Staphylococcus aureus; Table 2
# [12] = test system: S. aureus NRS107 MUP resistant; experiment: MIC, S. aureus NRS107; conditions: Staphylococcus aureus, Table 2
# [13] = test system: S. aureus NRS70 MRSA; experiment: MIC, S. aureus NRS70; conditions: Staphylococcus aureus; Table 2
# [14] = test system: Moraxella catarrhalis ATCC 25240; experiment: MIC, M. catarrhalis ATCC 25240; conditions: ATCC25240, Table 4
# [15] = test system: S. aureus NRS482 MRSA FQ resistant; experiment: MIC, S. aureus NRS482; conditions: Staphylococcus aureus; Table 2
# [16] = test system: Streptococcus pneumoniae ATCC BAA-255; experiment: MIC, S. pneumoniae ATCC BAA-255; conditions: ATCCBAA255, Table 2
# [17] = test system: Neisseria meningitidis ATCC 13090; experiment: MIC, N. meningitidis ATCC 13090; conditions: ATCC13090, Table 4, 24 h incubation
# [18] = test system: Legionella pneumophila ATCC 33152; experiment: microbe, parasite or virus in culture; conditions: ATCC33152, 48 h, read-out: MIC Legionella pneumophila ATCC 33152
# [19] = test system: Neisseria gonorrhoeae ATCC 49226; experiment: MIC, N. gonorrhoeae ATCC 49226; conditions: ATCC49226, Table 4, 24 h incubation
# [20] = test system: Escherichia coli ATCC 25922; experiment: MIC, broth microdilution, E. coli ATCC 25922; conditions: ATCC25922, Table 1, wild type strain
# [21] = test system: Mycobacterium smegmatis ATCC 19420; experiment: MIC, M. smegmatis ATCC 19420; conditions: Mycolicibacterium smegmatis, ATCC19420; Table 4, 72 h incubation
# [22] = HepG2, 24 h incubation, tested over 1-128 μg/mL
# [23] = ATCC 29213 / MSSA, Table 2, read-out: MIC S. aureus (MSSA) ATCC 29213 CLSI control strain
# [24] = ATCC29213, Table 1, wild type strain, read-out: MIC S. aureus ATCC 29213
Structure (SMILES),"IC50 [1, 22] [µg/mL]",MIC [2] [µg/mL],MIC [3] [µg/mL],MIC [4] [µg/mL],MIC [5] [µg/mL],MIC [6] [µg/mL],MIC [7] [µg/mL],MIC [8] [µg/mL],MIC [9] [µg/mL],"MIC [10, 23] [µg/mL]",MIC [11] [µg/mL],MIC [12] [µg/mL],MIC [13] [µg/mL],MIC [14] [µg/mL],MIC [15] [µg/mL],MIC [16] [µg/mL],MIC [17] [µg/mL],MIC [18] [µg/mL],MIC [19] [µg/mL],"MIC [10, 24] [µg/mL]",further results
"Cc1onc(-c2ccccc2)c1C(=O)N[C@@H]1C(=O)N2[C@@H]1SC(C)(C)[C@@H]2C(=O)O [Oxacillin, reference compound]",10 to 100,1 to 10,1 to 10,< 1,10 to 100,< 1,> 100,> 100,< 1,< 1,> 100,< 1,10 to 100,–,–,–,–,–,–,–,–
"C[C@H]1COc2c(N3CCN(C)CC3)c(F)cc3c(=O)c(C(=O)O)cn1c23 [Levofloxacin, reference compound]",> 100,< 1,1 to 10,10 to 100,1 to 10,< 1,10 to 100,< 1,> 100,< 1,< 1,< 1,< 1,< 1,1 to 10,< 1,< 1,< 1,< 1,–,–
"CN[C@H](CC(C)C)C(=O)N[C@H]1C(=O)N[C@@H](CC(N)=O)C(=O)N[C@H]2C(=O)N[C@H]3C(=O)N[C@H](C(=O)N[C@H](C(=O)O)c4cc(O)cc(O)c4-c4cc3ccc4O)[C@H](O)c3ccc(c(Cl)c3)Oc3cc2cc(c3O[C@@H]2O[C@H](CO)[C@@H](O)[C@H](O)[C@H]2O[C@H]2C[C@](C)(N)[C@H](O)[C@H](C)O2)Oc2ccc(cc2Cl)[C@H]1O [Vancomycin, reference compound]",–,1 to 10,–,1 to 10,< 1,1 to 10,1 to 10,10 to 100,1 to 10,< 1,1 to 10,1 to 10,< 1,–,1 to 10,< 1,–,–,–,–,"IC50 ([1]; HepG2, 24 h): 10 to 100 µg/mL; MIC ([3]; Table 2): < 1 µg/mL"
"Cc1nc2c(=O)n3c4c(c(N5CCC(CN)C5)c(F)cc4c2o1)OC[C@@H]3C (stereo partly drawn) [Compound 88, (2S)-6-[3-(aminomethyl)pyrrolidin-1-yl]-7-fluoro-2,12-dimethyl-4,11-dioxa-1,13-diazatetracyclo[7.6.1.0^5,^16.0^10,^14]hexadeca-5(16),6,8,10(14),12-pentaen-15-one]",10 to 100,–,1 to 10,1 to 10,10 to 100,1 to 10,1 to 10,1 to 10,1 to 10,< 1,–,–,–,1 to 10,1 to 10,–,1 to 10,1 to 10,1 to 10,< 1,MIC [20]: 1 to 10 µg/mL
"Cc1c(-c2ccc3[nH]ncc3c2)ccc2c3ocnc3c(=O)n(C3CC3)c12 [Compound 39, 5-cyclopropyl-7-(1H-indazol-5-yl)-6-methyl-oxazolo[4,5-c]quinolin-4-one]",10 to 100,< 1,< 1,< 1,10 to 100,< 1,< 1,< 1,< 1,< 1,< 1,< 1,< 1,–,< 1,< 1,< 1,–,< 1,< 1,MIC [21]: 1 to 10 µg/mL; MIC [20]: 1 to 10 µg/mL
"Cc1nc2c(=O)n(C3CC3)c3c(C)c(-c4ccc(CN)c(F)c4)ccc3c2o1 [Compound 36, 7-[4-(aminomethyl)-3-fluoro-phenyl]-5-cyclopropyl-2,6-dimethyl-oxazolo[4,5-c]quinolin-4-one]",> 100,10 to 100,1 to 10,10 to 100,10 to 100,< 1,> 100,1 to 10,1 to 10,< 1,1 to 10,1 to 10,< 1,1 to 10,1 to 10,1 to 10,< 1,< 1,10 to 100,< 1,MIC [20]: 1 to 10 µg/mL
"Cc1c(-c2cc(F)c(N)cc2F)ccc2c3oc(CN)nc3c(=O)n(C3CC3)c12 [Compound 100, 7-(4-amino-2,5-difluoro-phenyl)-2-(aminomethyl)-5-cyclopropyl-6-methyl-oxazolo[4,5-c]quinolin-4-one]",> 100,< 1,< 1,1 to 10,1 to 10,< 1,< 1,< 1,1 to 10,< 1,–,–,–,< 1,< 1,–,< 1,< 1,< 1,< 1,MIC [20]: < 1 µg/mL
